Assay results: publication PMC4701221, “Novel Promising Estrogenic Receptor Modulators: Cytotoxic and Estrogenic Activity of Benzanilides and Dithiobenzanilides” (PLoS ONE, 2016)
Entries after “also recorded” stand apart in the source; their conditions may differ.

Assays:
human ERα receptor = molecular target: T1, human ERα receptor (Homo sapiens, UniProt P03372); experiment: Estrogen Receptor luciferase assay in HEK293 cells transfected with ERα; type: cell-based; conditions: HEK293 transfected with ERα and luciferase reporter, compared with estradiol, Fig 3A/3B
T1 construct: host or cells: HEK293
T1 sequence (P03372 1-595): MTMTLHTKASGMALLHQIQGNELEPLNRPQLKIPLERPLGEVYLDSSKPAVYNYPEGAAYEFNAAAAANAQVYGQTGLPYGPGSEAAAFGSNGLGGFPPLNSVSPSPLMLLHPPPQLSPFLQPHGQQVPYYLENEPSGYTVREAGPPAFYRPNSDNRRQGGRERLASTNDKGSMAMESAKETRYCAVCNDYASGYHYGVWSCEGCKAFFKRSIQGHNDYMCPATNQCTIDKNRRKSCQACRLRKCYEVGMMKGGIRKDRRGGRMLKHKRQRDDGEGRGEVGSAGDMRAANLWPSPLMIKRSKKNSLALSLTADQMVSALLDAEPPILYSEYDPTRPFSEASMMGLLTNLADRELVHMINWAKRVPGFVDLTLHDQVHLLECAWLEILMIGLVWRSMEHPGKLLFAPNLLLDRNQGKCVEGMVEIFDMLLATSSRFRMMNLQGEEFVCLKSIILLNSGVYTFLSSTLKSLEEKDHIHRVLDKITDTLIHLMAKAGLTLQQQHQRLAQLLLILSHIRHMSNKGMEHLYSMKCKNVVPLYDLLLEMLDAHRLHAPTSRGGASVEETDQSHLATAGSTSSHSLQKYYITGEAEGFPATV
Text: To obtain a eukaryotic vector expressing only the ER-α nuclear receptor, a construct was designed by cloning a KpnI-BamHI fragment from plasmid pEGFP-C1-ERα containing the ERα coding sequence that includes a stop signal into the pEGFP-N3 plasmid (Clontech Laboratories, Palo Alto, CA) under the control of the CMV promoter. This construction was termed pEGFP-N-ERα, and although it encoded both human ERα receptor and GFP protein, only the former is expressed. For mock transfections, pEGFP-N3 plasmid was digested with BglII and NotI and religated after polishing DNA ends to remove GFP coding sequence. Plasmid sequence was confirmed by automatic sequencing. Prior to transfection, cells were seeded in 48 well plates at density of 1.5 x 10^4 cells/well and incubated for 24 h to reach a cell confluence of 80–90%. […] MCF-7 cells, which endogenously express ERα receptor, were transfected with p3xERRE/ERE-luciferase plus the pRLTK Renilla luciferase control plasmid (95:5). Firefly and Renilla luciferase activities were measured using the Dual Luciferase Assay System (Promega, Madison, WI, USA), following a standard protocol using a Sirius L luminometer (Berthold Technologies, Bad Wildbad, Germany). Data were expressed as relative changes in luciferase activity and normalized to 100%.

MCF-7 cells = experiment: Sulphorodamine B assay, MCF-7; type: cell-based, human; conditions: 72 h, Fig 2
Protocol: In addition to the MTT assay, cell viability was measured by the Sulphorodamine B assay according to Vichai and Kirtikara. The MCF-7 and MDA-MB-23 cells were seeded and treated as for the MTT assay. After incubation the medium was removed and the cells were fixed with cold (4°C) trichloroacetic acid (final concentration 10%) for 1h. Than plates were washed 4 times with water and stained for 30 min, following by staining with sulforhodamine B (SRB) 0.4% in 1% acetic acid solution at room temperature for 20 min. After staining, the SRB solution was removed and the plates washed 5 times with 1% acetic acid dried. Bound SRB was solubilized with 200 μl 10 mM unbuffered Tris-base solution and plates were shaked for 10 min. The absorbance at 510 nm was measured using a plate reader (Biotek Instruments, Elx-800).

Fc1ccc(NC(=S)c2ccc(NC(=S)c3ccc(F)cc3)cc2)cc1 [Compound 18]
ER dependent transcriptional activity (human ERα receptor): capable to mediate ER dependent transcriptional activity in a similar mode than estradiol; also recorded: higher transcriptional activity at all assayed concentrations compared with estradiol
Effect in SRB assay, MCF-7 (MCF-7 cells): strong effect
